Measurements taken from PMC5755735, “Discovery of indolylpiperazinylpyrimidines with dual-target profiles at adenosine A2A and dopamine D2 receptors for Parkinson's disease treatment” (PLoS ONE, 2018).
Read-outs that look alike come from different tables or passages of the source.

Test: aqueous solubility
Format: physicochemical
Conditions: universal aqueous buffer, 22.5 °C, pH 7.4, aqueous buffer, kinetic from dmso stock
Protocol: The 10 μL stock solution of the ligand (10 mM in DMSO) was added to the universal aqueous buffer (pH 7.4), and the mixture was sonicated. 300 μL of the turbid mixture was transferred to the 3 wells of MultiScreen HTS- PCF filter plate (Millipore Corp., Ireland), and the plate was covered and incubated with gentle shaking (250 rpm, 3 h) at room temperature (22.5 ± 2.5°C). After the period of incubation (3 h), the filter plate was placed on a vacuum manifold and the contents were filtered into a 96-well UV plate. After filtration, 200 μL of filtrate was transferred from each well to the PP vial. Absorbances of the solutions were quantified by HPLC-UV and read at 250 nm.

Question: With `Cc1cc(C)nc(N2CCN(C(=O)c3c[nH]c4ccccc34)CC2)n1` [Compound 5, 3‐[4‐(4,6‐Dimethylpyrimidin‐2‐yl)piperazine‐1‐carbonyl]‐1H‐indole] as the compound, how does the solubility at 3 h (ambient temperature, pH 7.4, guideline of Kerns et al. [40], read-out: aqueous solubility class) read?
Answer: Its solubility at 3 h is less than 10 µg/mL.

Question: What about the solubility at 3 h (pH 7.4, 3 h, room temperature, read-out: Solubility (μM), 3 h) of the same compound?
Answer: Its solubility at 3 h is 27 ± 0.32 µM.

Question: And the solubility at 3 h (pH 7.4, 3 h, room temperature, read-out: Solubility (μg/mL), 3 h)?
Answer: The solubility at 3 h was 9.07 ± 0.11 µg/mL.
